± gives the standard deviation of the averaged measurements.
Tests used:
Details in all cases: 72 h
HL-60 [1] = experiment: cell viability (% survival relative to DMSO control); higher = less cytotoxic
Method in brief: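 For each screen, HL-60 cells in RPMI 1640 with 10% FBS carried either DMSO or 100 nM of one of three metabolic inhibitors while the full library was applied at five tenfold concentrations, 1–10,000 nM, in duplicate. Plates were 384-well and were kept 72 h at 37 °C, 5% CO2. Viability, measured by CellTiter-Glo, was normalised to wells with DMSO and with 10 μM proteasome inhibitor. Where area under the curve appears, it was fitted by four-parameter log-logistic models in drc and PharmacoGx.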

Mono-Mac-6 [2] = experiment: cell viability (% survival relative to DMSO control, bortezomib = 0%); higher = less cytotoxic
Method in brief: (§1)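 Reported values are percent survival from duplicate wells, averaged. Fifteen myeloid leukaemia cell lines were treated in 384-well plates with compounds at 1, 10, 100, 1000 or 10000 nM for 72 h at 37 °C in 5% CO2. Signals from CellTiter-Glo luminescence were scaled with vehicle as 100% and a 10 µM positive control as 0%.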

HL-60 [3] = experiment: as above
Method in brief: as §1

KU-812 [4] = experiment: as above
Method in brief: as §1

HEL = experiment: as above
Method in brief: as §1

BV-173 = experiment: as above
Method in brief: as §1

NOMO-1 [5] = experiment: as above
Method in brief: as §1

KCL-22 = experiment: as above
Method in brief: as §1

MV4-11 [6] = experiment: as above
Method in brief: as §1

LAMA-84 = experiment: as above
Method in brief: as §1

SHI-1 = experiment: as above
Method in brief: as §1

MOLM-13 = experiment: as above
Method in brief: as §1

THP-1 = experiment: as above
Method in brief: as §1

ML-2 = experiment: as above
Method in brief: as §1

K-562 [7] = experiment: as above
Method in brief: as §1

KG-1 = experiment: as above
Method in brief: as §1

Mono-Mac-6 [8] = test system: Mono-Mac-6
Method in brief: (§2)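 For the IC50, dose–response curves were fitted with a log-logistic model. The data came from fifteen myeloid leukaemia cell lines grown in RPMI 1640 at densities in the linear growth range and incubated in 384-well plates for 72 h at 37 °C under 5% CO2. Doses were five tenfold steps from 1 to 10,000 nM in duplicate, and luminescent ATP viability was normalised to vehicle and to a positive control at 10 µM before four-parameter fitting.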

KU-812 [9] = test system: KU-812
Method in brief: as §2

NOMO-1 [10] = test system: NOMO-1
Method in brief: as §2

MV4-11 [11] = test system: MV4-11
Method in brief: as §2

K-562 [12] = test system: K-562
Method in brief: as §2

C[C@](N)(Cc1ccc(O)cc1)C(=O)O [Metirosine]
cell viability [%], HL-60 [1]
Details | 0.001 µM | 0.01 µM | 0.1 µM | 1 µM | 10 µM
co-treatment: AZD3965 100 nM | 101 ± 4.8 | 101.8 ± 0.89 | 99 ± 11 | 95.8 ± 6.8 | 97.76 ± 0.91
co-treatment: DMSO vehicle | 108 ± 5.7 | 104 ± 3 | 101 ± 4.5 | 101 ± 5.1 | 103 ± 1.1
co-treatment: GSK2194069 100 nM | 105 ± 6 | 104 ± 11 | 98.9 ± 4 | 93.8 ± 14 | 99.6 ± 1
co-treatment: pictilisib 100 nM | 116 ± 5.2 | 105 ± 17 | 98.9 ± 5.9 | 81.1 ± 8.7 | 105 ± 10

cell viability [%]
Details | 1 nM | 10 nM | 100 nM | 1000 nM | 10000 nM
BV-173 | 98.4 | 89.1 | 115 | 86 | 114
HEL | 101 | 92.6 | 99.6 | 94.7 | 108
HL-60 [3] | 99.2 | 93.7 | 89.7 | 97.6 | 107
K-562 [7] | 113 | 90.2 | 101 | 107 | 103
KCL-22 | 107 | 95.1 | 96.9 | 91.8 | 99.7
KG-1 | 105 | 93.9 | 94.7 | 89.3 | 107
KU-812 [4] | 89.4 | 91.1 | 102 | 91.9 | 96.5
LAMA-84 | 102 | 108 | 107 | 105 | 99.2
ML-2 | 91.1 | 96.7 | 107 | 97.9 | 93.5
MOLM-13 | 94.4 | 81.5 | 82.9 | 94.6 | 95.7
MV4-11 [6] | 107 | 87.3 | 92.3 | 107 | 101
Mono-Mac-6 [2] | 99.2 | 101 | 107 | 92.9 | 104
NOMO-1 [5] | 95 | 96.6 | 103 | 93.6 | 102
SHI-1 | 103 | 105 | 101 | 101 | 91.4
THP-1 | 98.3 | 99.5 | 105 | 94.3 | 101

Details | IC50 (cell viability) [µM]
K-562 [12] | > 10
KU-812 [9] | > 10
MV4-11 [11] | > 10
Mono-Mac-6 [8] | > 10
NOMO-1 [10] | > 10

NCCCC(N)(C(=O)O)C(F)F (stereo not given) [Difluoromethylornithine]
cell viability [%], HL-60 [1]
Details | 0.001 µM | 0.01 µM | 0.1 µM | 1 µM | 10 µM
co-treatment: AZD3965 100 nM | 105 ± 3.3 | 100.5 ± 0.84 | 100 ± 0.81 | 93.5 ± 2.9 | 96.8 ± 4
co-treatment: DMSO vehicle | 103 ± 2.6 | 97.01 ± 0.84 | 104 ± 6 | 101 ± 1.8 | 103 ± 1.9
co-treatment: GSK2194069 100 nM | 101 ± 7.7 | 98.8 ± 4.4 | 104 ± 1.5 | 95.6 ± 6.4 | 101 ± 4.5
co-treatment: pictilisib 100 nM | 100 ± 9.8 | 92.3 ± 4 | 97.2 ± 1.6 | 92.6 ± 4.1 | 94.6 ± 2

cell viability [%]
Details | 1 nM | 10 nM | 100 nM | 1000 nM | 10000 nM
BV-173 | 97.1 | 91.2 | 96.8 | 95.2 | 105
HEL | 100 | 96.8 | 90.1 | 104 | 95.9
HL-60 [3] | 93.6 | 123 | 98.7 | 88.8 | 99.5
K-562 [7] | 99.3 | 104 | 97 | 107 | 126
KCL-22 | 111 | 84.4 | 88.1 | 95 | 101
KG-1 | 96.1 | 88.8 | 90.8 | 95.1 | 105
KU-812 [4] | 116 | 96.2 | 83.1 | 99.3 | 105
LAMA-84 | 107 | 99.2 | 91.8 | 102 | 110
ML-2 | 93.5 | 79.1 | 93.4 | 92.1 | 96.5
MOLM-13 | 87.2 | 103 | 93.3 | 107 | 101
MV4-11 [6] | 93.8 | 98.9 | 81.3 | 85.5 | 109
Mono-Mac-6 [2] | 98.2 | 92.7 | 94.2 | 98.5 | 93.3
NOMO-1 [5] | 99.5 | 91.5 | 102 | 95.6 | 99.7
SHI-1 | 100 | 100 | 90.9 | 104 | 106
THP-1 | 96.5 | 95.6 | 98.9 | 100 | 104

Details | IC50 (cell viability) [µM]
K-562 [12] | > 10
KU-812 [9] | > 10
MV4-11 [11] | > 10
Mono-Mac-6 [8] | > 10
NOMO-1 [10] | > 10

O=C1O[C@H]([C@@H](O)CO)C(O)=C1O [Vitamin C (ascorbate)]
cell viability [%], HL-60 [1]
Details | 0.001 µM | 0.01 µM | 0.1 µM | 1 µM | 10 µM
co-treatment: AZD3965 100 nM | 89.82 ± 0.29 | 94.8 ± 6.4 | 101 ± 2 | 103 ± 4.3 | 67.9 ± 35
co-treatment: DMSO vehicle | 102 ± 1.1 | 95.8 ± 7.2 | 98.77 ± 0.68 | 103 ± 2.7 | 88.3 ± 13
co-treatment: GSK2194069 100 nM | 88.6 ± 17 | 100 ± 1.1 | 96.8 ± 6.4 | 101 ± 4.3 | 95.5 ± 1.6
co-treatment: pictilisib 100 nM | 80.3 ± 1.6 | 81.6 ± 28 | 96.3 ± 3.5 | 95.46 ± 0.63 | 75.2 ± 19

cell viability [%]
Details | 1 nM | 10 nM | 100 nM | 1000 nM | 10000 nM
BV-173 | 94.2 | 113 | 103 | 99.2 | 118
HEL | 103 | 106 | 98.9 | 107 | 113
HL-60 [3] | 104 | 91.2 | 101 | 108 | 84.7
K-562 [7] | 99.2 | 96.3 | 92.8 | 104 | 89.4
KCL-22 | 90.2 | 96.2 | 97.7 | 88.1 | 92.6
KG-1 | 112 | 103 | 118 | 97.5 | 106
KU-812 [4] | 96.8 | 104 | 99.5 | 95 | 108
LAMA-84 | 106 | 106 | 113 | 101 | 102
ML-2 | 103 | 107 | 100 | 102 | 121
MOLM-13 | 101 | 103 | 91.6 | 94.2 | 107
MV4-11 [6] | 102 | 102 | 111 | 111 | 92.1
Mono-Mac-6 [2] | 103 | 109 | 98.8 | 101 | 108
NOMO-1 [5] | 95.5 | 100 | 110 | 97.8 | 102
SHI-1 | 110 | 106 | 105 | 102 | 114
THP-1 | 96.4 | 100 | 103 | 103 | 99.9

Details | IC50 (cell viability) [µM]
K-562 [12] | > 10
KU-812 [9] | > 10
MV4-11 [11] | > 10
Mono-Mac-6 [8] | > 10
NOMO-1 [10] | > 10

CC(C)c1onc(-c2c(Cl)cccc2Cl)c1COc1ccc(/C=C/c2cccc(C(=O)O)c2)c(Cl)c1 [GW4064]
cell viability [%], HL-60 [1]
Details | 0.001 µM | 0.01 µM | 0.1 µM | 1 µM | 10 µM
co-treatment: AZD3965 100 nM | 102 ± 3.9 | 98.93 ± 0.69 | 91 ± 13 | 109 ± 3.3 | 93.1 ± 5.6
co-treatment: DMSO vehicle | 99.99 ± 0.47 | 99.3 ± 1.1 | 101 ± 1.8 | 99.9 ± 2.6 | 99.6 ± 2
co-treatment: GSK2194069 100 nM | 99.3 ± 7.7 | 98.9 ± 1.6 | 97.7 ± 1.6 | 90.85 ± 0.69 | 75.5 ± 2.3
co-treatment: pictilisib 100 nM | 86.7 ± 13 | 96.6 ± 2 | 90.9 ± 10 | 105 ± 1.7 | 97.1 ± 1

cell viability [%]
Details | 1 nM | 10 nM | 100 nM | 1000 nM | 10000 nM
BV-173 | 111 | 96.2 | 92.3 | 87.7 | 37.4
HEL | 85.7 | 87.2 | 86.8 | 87 | 66.7
HL-60 [3] | 115 | 93.8 | 89.7 | 109 | 51.5
K-562 [7] | 109 | 107 | 105 | 90.9 | 49.4
KCL-22 | 91.5 | 93.8 | 96 | 85.6 | 31.7
KG-1 | 85.6 | 81.5 | 95.8 | 76.8 | 51.2
KU-812 [4] | 96.8 | 99.7 | 90.7 | 85.1 | 76
LAMA-84 | 105 | 103 | 94.2 | 85.3 | 43.4
ML-2 | 95.6 | 86.2 | 84 | 86.2 | 68.5
MOLM-13 | 147 | 108 | 93.8 | 86.7 | -0.111
MV4-11 [6] | 110 | 107 | 78.6 | 68.2 | 6.8
Mono-Mac-6 [2] | 104 | 87.6 | 95.9 | 86.7 | 67.7
NOMO-1 [5] | 102 | 99.3 | 94 | 95.8 | 89.5
SHI-1 | 110 | 99.3 | 101 | 95.9 | 53
THP-1 | 88.8 | 92.3 | 91.5 | 90.5 | 54.6

Details | IC50 (cell viability) [µM]
K-562 [12] | 6.26
KU-812 [9] | > 10
MV4-11 [11] | 1.6
Mono-Mac-6 [8] | > 10
NOMO-1 [10] | > 10
